The subject of experiment [1] is MM patients with amp1q chromosomal aberration. The experiment in a line: Overall survival (Kaplan Meier) of MM patients with amp1q by classical FISH, PAD versus VAD. It is filed as in vivo, human. The following applies: MM patients with an amp1q chromosomal aberration. From the text:
FIG. 1: Kaplan Meier curve showing 60 MM patients (see Table 2) identified as having an additional copy of chromosome 1q (amp1q) using classical FISH analysis. […] Upper line: amp1q cases treated with PAD; lower line: amp1q cases treated with VAD. Hazard Ratio=3.59, p=0.0037.
FIG. 1 provides a Kaplan-Meier curve wherein the top line represents amp1q cases treated with Bortezomib (a proteasome inhibitor), Adriamycin and Dexamethasone (PAD), and the bottom line represents amp1q cases treated with a conventional therapy (Vincristine Adriamycin Dexamethasone or VAD). A Hazard Ratio of 3.59 (p=0.0037) was found. It was concluded that MM patients with amp1q may be preferentially treated with a proteasome inhibitor such as Bortezomib since that provides these patients with a better life expectancy.
FISH analysis was performed in 304 patients. In nonpurified plasma cell samples (n=125), at least 200 interphase nuclei per sample were analyzed by the use of epi-fluorescence microscopy and image analysis software. Within several cases, a preceding analysis of selected myeloma cells was determined by immunoglobulin light chain counterstaining or morphology. In CD138-purified PC samples (n=179), 100 nuclei were evaluated by the use of an epifluorescence microscope (Leica Microsystems). […]

Experiment [2] deals with MM subjects without the amp1q chromosomal aberration. Briefly: Response of MM patients without amp1q to proteasome inhibitor. In kind it is in vivo, human. From the text: Methods for determining whether a subject with MM has an amp1q chromosomal aberration are known in the art, and any such methods may be used in aspects of this disclosure, although preferred embodiments will be disclosed herein below.

For `CC(C)C[C@H](NC(=O)[C@H](Cc1ccccc1)NC(=O)c1cnccn1)B(O)O` [Bortezomib], the Response to treatment result in experiment [1] is reported as “respond well”; in experiment [2], “do not experience this advantageous response”.

(Values after patent US20170101684A1, “METHOD FOR DIAGNOSING AND TREATING MULTIPLE MYELOMA” (Erasmus University Medical Center Rotterdam, priority 2014, published 2017).)
